Experimental data as given in patent US20260048003A1, “STABLE CYCLODEXTRIN FREE CARFILZOMIB FORMULATION” (AMGEN INC., priority 2020, published 2026).

How the values were obtained:
Format in all cases: physicochemical
[1] = Aqueous phase solvents screening to dissolve CFZ-API to about 2 mg/ml (visual, RP-HPLC after filtration); conditions: aqueous solution around pH 3.0 to 3.5 (methane sulfonic acid) with 10,000 MW PVP
Source text: In Step 1 of the flow scheme preparation, non-aqueous solvents consisting of water miscible organic solvents and a co-solvent system were first added to dissolve the CFZ-API solid due its very low water solubility. […] The solution was then filtered by using 0.22 μm PES syringe filter equipped on a NORMJECT® (silicone free) syringe. The resulting filtrate was then checked for CFZ-API solubility recovery and stability on reverse phase high performance liquid chromatography (RP-HPLC). RP-HPLC was used to determine peak degradation as well as CFZ-API recovery through the use of a 3 to 5 point reference standard curve. Peak integration of standards was taken against standard buffer, 50% acetonitrile in water; while peak integration of formulation samples was taken against buffer of the formulation.

[2] = Organic water miscible solvent screening to dissolve CFZ-API at high concentration; conditions: in NMP and DMSO
Method: Non-aqueous phase: (a) 200 mg/ml to 250 mg/ml of CFZ-API target concentration for the water miscible solvent screening; and (b) 20 to 50 mg/ml of CFZ-API target concentration for the co-solvent screening; and Aqueous phase: about 2 mg/ml target CFZ-API final concentration.
Since CFZ-API is extremely insoluble in water, various organic water miscible solvents were first screened to dissolve CFZ-API drug substance powder.

[3] = Visual observation of the cyclodextrin-free CFZ-API sample formulation (FIG. 1); conditions: CFZ-API 2 mg/ml in water in the presence of phosphate buffer solution (PBS)
Source text: FIG. 1 illustrates a visual comparison of carfilzomib active ingredient in (a) water, (b) cyclodextrin (CAPTISOL®) and cyclodextrin-free formulation of the present invention
Carfilzomib (CFZ) is a proteasomal inhibitor and active ingredient of KYPROLIS®, a lyophilized drug product which is for the treatment of multiple myeloma. The current commercial formulation of KYPROLIS contains CAPTISOL®, which is a cyclodextrin used to help solubility the CFZ-API. The present invention provides a stable, cyclodextrin-free formulations for CFZ-API in an aqueous solution which is suitable for injection. FIG. 1 illustrates (a) insoluble CFZ-API in water in the presence of phosphate buffer solution (PBS) (left vial); (b) current commercial KYPROLIS formulation containing CAPTISOL (middle vial); and (c) the cyclodextrin free formulation of the invention (right vial). Each sample contains CFZ-API concentration of 2 mg/ml.

[4] = Lyophilization and bulking agent screening
Method: 1 mL CFZ-API liquid formulation fill as prepared above in 3 mL Schott 1A glass vial was loaded into a VirTis Genesis 12 EL lyophilizer (TS Systems LyoStar™-3, SP Scientific, Warminster, PA). The lyophilization cycle used for screening bulking agents consisted of holding shelf temperature at 4° C. for 30 minutes then cooling the shelf to −45° C. at 0.2° C./min. The annealing step was then performed at from −45° C. to −12° C. at 0.3° C./min. The primary drying and secondary drying shelf temperatures were −25° C. and 25° C., respectively. The heating rate applied to the primary and secondary drying were 0.2° C./min and 0.1° C./min, respectively.
Table 5 describes the initial lyophilization study results of formulations containing bulking agents such as PVP 12,000 MW, mannitol, or glycine pre and post lyophilization. PVP was selected as a co-solubilizing agent candidate because of high solubility of CFZ-API in PVP pre and post lyophilization as discussed above. […]
Results from the lyophilization and bulking agent screening produced mostly poor lyophilized cakes, however two selected bulking agent provided cakes that looked better in overall drug product presentation. […] The CFZ-API recovery of 1.8 mg/ml was lower than the expected of 2 mg/ml possibly due to the other components of the powder absorbing the water, making it more dilute than theoretically measured.

CFZ-API solubilized [1]: ≥ 90%
CFZ-API solubility [2]: highly soluble
Visual observation (FIG. 1) [3]: insoluble
CFZ-API solubility trend with PVP concentration ([4]; PVP 10% to 40%): higher CFZ-API solubility
CFZ-API solubility trend with PVP molecular weight ([4]; PVP 10,000, 12,000 and 17,000 MW): more soluble in lower MW PVP
SMILES: CC(C)C[C@H](NC(=O)[C@H](CCc1ccccc1)NC(=O)CN1CCOCC1)C(=O)N[C@@H](Cc1ccccc1)C(=O)N[C@@H](CC(C)C)C(=O)[C@@]1(C)CO1 [CFZ-API, Carfilzomib]
